In PMC7367873, “Dissecting the sequence determinants for dephosphorylation by the catalytic subunits of phosphatases PP1 and PP2A” (Nature Communications, 2020):

Test system: PP1c/PP2Ac
Assay: PP1c versus PP2Ac specificity of p-sites (pairwise comparison / hierarchical clustering of phosphoproteomic data)
Type: biochemical, human
Conditions: for share of substrates specific to the phosphatase: hierarchical clustering; for number of specific sequences (cluster size): hierarchical clustering after one-way ANOVA
Experimental: For phosphoproteomics, HeLa Kyoto cells were incubated with 20 nM Calyculin A (CST, #9902) for 10–15 min. This time point was determined empirically to yield maximal phosphatase inhibition without cells showing pleiotropic effects. Subsequently, cells were placed on ice and washed twice with cold PBS and scraped in lysis buffer (100 mM NaCl, 10 mM Tris, 0.1% IGEPAL, 1 mM EDTA, 1 mM EGTA, 20 nM Calyculin A, 1x cOmplete Mini protease inhibitor cocktail (Sigma), 1 mM DTT, 1 mM MnCl2, pH 7.5). After 10 pushes through an injection needle (21 G, BD), lysate was cleared from the insoluble fraction by centrifugation (10 min, 10^4 rcf, 4 °C). Protein concentration was then determined by a Bradford Assay and equal amounts of 1 mg total protein were incubated with recombinant PP1c/PP2Ac or buffer at a final phosphatase concentration of 1 µM in a total volume of 200 µL for 1 h at 30 °C. Lysates were then immediately placed on ice. PhosStop […] (Roche) was added and proteins were denatured by adding urea to a final concentration of 8 M taking into account the volume increase. Samples were then snap-frozen in liquid nitrogen for storage and subsequent MS analysis.
Downstream analysis of the phosphoproteomic datasets was carried out using the software tool Perseus[66]. For analysis of phosphoproteomic experiments, row-wise, median-normalized data (see previous section) was linked to known regulatory sites by PhosphoSitePlus entries and categorical columns for treatments were assigned. Reverse peptides and potential contaminants were filtered. Next, categorical columns for biological functions and treatments were assigned. TMT reporter intensities were then transformed into log2. At this point, all data were then filtered for valid values in all three replicates of at least one condition. Next, the distribution of TMT reporter intensities was assessed visually by plotting count-based histogramms and in a multiscatter plot using the Pearson correlation as an estimate of reproducibility. Next, NA (=not available: missing) values were replaced by imputation from a normal distribution (width 0.3, down-shift 1.8, per column). The data quality was routinely assessed by two means: First, by plotting a histogram of peptide length vs. counts and visualization of imputed values to confirm a normal distribution of the data, and secondly by principal component analysis (default settings in Perseus) to judge the sample grouping.
For hierarchical clustering, the results of the one-way ANOVA were processed for two more steps in Perseus: first data were filtered for significant hits from the one-way ANOVA and then subjected to z-transformation. Hierarchical clustering images were produced using Euclidean distance, 300 clusters and 10 rounds of iteration.
Also all further data processing for protein enrichment and extraction of protein sequences in positions −5 to +5 relative to the p-sites of interest for subsequent motif analysis was performed using RStudio with R v3.3.2 using the packages tidyverse and BioStrings. In order to study the sequence specificity of PP1c and PP2Ac on the protein level, position specific probability matrices, representing the relative occurrence for each amino acid surrounding pSer/pThr were produced by extracting sequence information in positions −5 to +5 for all PP1c/PP2Ac-sensitive class I p-sites. Next, the count for each amino acid in each position was divided by the total of all counts for a certain position, resulting in relative abundance. […] Importantly, amino acids with less than 25 counts in PP1-sensitive/-insensitive or PP2A-sensitive/insensitive comparisons were excluded. For calculating a heat map directly comparing PP1c against PP2Ac, these fold changes were divided. […] Obtained p-values were adjusted for multiple testing using the method of Benjamini and Hochberg.
PP1c/PP2Ac-sensitive class I sites were divided into three classes as illustrated for PP1c in Supplementary Fig. 4c. […]

share of substrates specific to the phosphatase	Substance	number of specific sequences (cluster size)
28%	PP1c: recombinant catalytic subunit of PP1	777 sequences
24%	PP2Ac: His-tagged recombinant PPP2CA ΔL309, purchased from Cayman Chemical	663 sequences
